Patent US20040043959A1, “Combination therapies for treating methylthioadenosine phosphorylase deficient cells” (priority 2002, published 2004)
Where two headings read alike, the source gives them in different places.

Columns and labels:
[1] = biological target: T1, human membrane folate-binding protein (mFBP) (Homo sapiens, UniProt P15328); experiment: competitive binding assay against 3H-folic acid with mFBP prepared from KB cells
T1 construct: mFBP prepared from cultured KB cells (human nasopharyngeal carcinoma cells); endogenous in cells
T1 sequence (P15328 25-234): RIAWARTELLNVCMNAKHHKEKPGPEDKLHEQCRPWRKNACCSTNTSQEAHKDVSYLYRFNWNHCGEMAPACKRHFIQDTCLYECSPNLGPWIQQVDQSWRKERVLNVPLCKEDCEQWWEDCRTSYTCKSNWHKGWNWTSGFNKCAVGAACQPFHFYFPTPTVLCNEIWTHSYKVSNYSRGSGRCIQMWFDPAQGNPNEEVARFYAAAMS
From the text: The dissociation constant (Kd) of the preferred inhibitors of the present invention for human membrane folate-binding protein (mFBP) can be determined in a competitive binding assay using mFBP prepared from cultured KB cells (human nasopharyngeal carcinoma cells) as disclosed in U.S. Pat. No. 5,646,141, the disclosures of which is hereby incorporated by reference in its entirety.
Human membrane folate binding protein can be obtained from KB cells by methods well known in the art. KB cells are washed, sonicated for cell lysis and centrifuged to form pelleted cells. The pellet can then be stripped of endogenous bound folate by resuspension in acidic buffer (KH2PO4—KOH and 2-mercaptoethanol) and centrifuged again. The pellet is then resuspended and the protein content quantitated using the Bradford method with bovine serum albumin (BSA) as standard.
Disassociation constants are determined by allowing, the test inhibitor to compete against ^3H-folic acid for binding to mFBP. Reaction mixtures are designed to generally contain mFBP, ^3H-folic acid, and various concentrations of the subject test inhibitor in acidic buffer (KH2PO4—KOH and 2-mercaptoethanol). The competition reaction is typically conducted at 25°. Because of the slow nature of release of bound ^3H-folic acid, the test inhibitor may be prebound prior to addition of bound ^3H-folic acid, after which the reaction should be allowed to equilibriate. The full reaction mixtures then should be drawn through nitrocellulose filters to isolate the cell membranes with bound ^3H-folic acid. The trapped mFBP are then washed and measured by scintillation counting. The data can then be nonlinearly fitted as described above in determining Ki. The mFBP Kd for ^3H-folic acid, used for calculating the competitor Kd, can be obtained by directly titrating mFBP with ^3H-folate. The mFBP Kd can then be used to calculate the competitor Kd by nonlinear fitting of the data to an equation for tight-binding Kc. Table 1 below provides the Kd values of several GARFT inhibitors using the assay described above.

[2] = tested on: MTAP-competent SK-MES-1 non-small cell lung cancer cells; experiment: MTT growth inhibition by Compound 7 with and without MTA; format: cell-based, human
Description: All cell lines were purchased from the American Type Culture Collection. All cultures were maintained at 37° C., in 5% air-CO2 atmosphere in a humidified incubator.
Cells were plated in columns 2-12 of a 96-well microtiter plate, with column 2 designated as the vehicle control. The same volume of medium was added to column 1. Column 1 was designated as the media control. After a 4-hour incubation, the cells were treated with Compound 7, with or without a non-growth inhibitory concentration of MTA, in quadruplicate wells. […] MTT (4,5-dimethylthiazol-2-yl)-2,5-diphenyl tetrazolium bromide; Sigma, St. Louis, Mo.) was added to a final concentration of 0.25-1 mg/ml in each well, and the plates were incubated for 4 hours. The liquid was removed from each well. DMSO was added to each well, then the plates were vortexed slowly in the dark for 7-20 minutes. The formazin product was quantified spectrophotometrically at […] on a Molecular Devices Vmax™ kinetic microplate reader.

[3] = tested on: human pancreatic BxPC-3 tumor; experiment: antitumor activity in MTAP-deficient xenograft model; format: in vivo, mice
From the text: (§1) To evaluate the in vivo effect of combination therapy on known human MTAP-deficient tumors, an MTAP-deficient cell line was introduced to mice to produce xenograft MTAP-deficient tumors. 108 BALB/c/nu/nu female mice bearing subcutaneous tumor fragments produced from the MTAP-deficent BxPC-3 cell line were housed 3 per cage with free access to food and water. Mice were fed a folate-deficient chow (#Td84052, Harlan Teklad, Madison, Wis.) beginning 14 days prior to initiation of drug treatment and continuing throughout the study. After randomization by tumor volume into 8 treatment groups and assigning the remaining 12 mice to group 7, beginning on the twenty-first day after tumor implant mice were dosed with Compound 7 daily for 4 days, and with MTA or vehicle twice-a-day for 8 days, in the amounts indicated in Table 7 below. The vehicle for both compounds was 0.75% sodium bicarbonate in water (7.5% NaHCO3 solution (Cellgro #25-035-4, Mediatech, Herndon, Va.) diluted 1:10 in sterile water for injection (Butler, Columbus, Ohio)) under pH adjusted to 7.0-7.4. Solutions were sterilized by filtration through 0.22 micron polycarboniate filters (Cameo 25GAS, Micron Separations Inc., Westboro, Mass.). Tumor volumes and animal weight loss, which is an indicator of toxicity, were recorded daily for 14 days at the same time of day, then on a Monday, Wednesday, Friday schedule for the remainder of the study.

[4] = animal weight loss (toxicity) in BxPC-3 xenograft study; format: in vivo; conditions: 40 mg/kg Compound 7 plus 50 mg/kg MTA versus 2.5 mg/kg Compound 7 alone, folate-deficient diet
From the text: as §1, with “Solutions were sterilized by filtration through 0.22 micron polycarboniate filters (Cameo 25GAS, Micron Separations Inc., Westboro, Mass.).” left out

[5] = mouse, in vivo
Description: A series of experiments were undertaken in order to evaluate the in vivo effect of schedule of administration of MTA on reduction of […] induced by […]. BALB/c/nu/nu female mice were housed 3 per cage with free access to food and water. Mice were fed a folate-deficient chow (#Td84052, Harlan-Teklad, Madison, Wis.) for at least 14 days prior to initiation of drug treatment and continuing throughout the study. Animal weight loss, which is a measure of toxicity, was recorded at least daily for 18 days at the same time of day. Table 11 presents a summary of data from multiple experiments, i.e., at least two experiments for each schedule. […] To produce this effect, MTA must be administered at the beginning of treatment with Compound 7 and continuing until after treatment with Compound 7. Further, since the activity of Compound 7 continues for at least a few days after the last dose was administered, to produce an effect MTA must be administered during this period of activity, i.e. for at least 2 days after the last dose of the cytotoxic was administered.

[6] = biological target: T1, human membrane folate-binding protein (mFBP); conditions: relative to lometrexol; cited from earlier work
GARFT = biological target: T2, GARFT (Homo sapiens, UniProt P22102); conditions: read-out: Ki (GARFT inhibitor); cited from earlier work
T2 construct: The GART domain (residues 808-1010) of the trifunctional human GARS-AIRS-GART enzyme was purified; made in house
T2 sequence (P22102 808-1010): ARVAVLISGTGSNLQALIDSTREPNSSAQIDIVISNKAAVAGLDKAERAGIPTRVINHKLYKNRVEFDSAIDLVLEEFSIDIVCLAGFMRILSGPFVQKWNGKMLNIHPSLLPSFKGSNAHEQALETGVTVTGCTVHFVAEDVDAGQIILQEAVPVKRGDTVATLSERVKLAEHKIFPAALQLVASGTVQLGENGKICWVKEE

Cc1cc(C(=O)N[C@@H](CCC(=O)O)C(=O)O)sc1CC[C@@H]1CNc2nc(N)[nH]c(=O)c2C1 (single isomer, unassigned) [Compound 7]
Kd [1]: 290 nM | cell growth inhibition as a single agent ([2]; SK-MES-1, 168 h, FIG. 3): fully inhibited cell growth | cell number at the highest concentration of Compound 7 tested ([2]; with 10 μM MTA, up to approximately 60 times the IC50 of Compound 7): about 75 % of control | Time to 1000 mm^3 (days) Mean ([3]; 2.5 mg/kg Compound 7 qd x4): 32.3 days | Time to 1000 mm^3 (days) Median ([3]; 2.5 mg/kg Compound 7 qd x4): 32.4 days | Time to 1000 mm^3 (days) Mean ([3]; 5 mg/kg Compound 7 qd x4): 32.1 days | Time to 1000 mm^3 (days) Median ([3]; 5 mg/kg Compound 7 qd x4): 32.4 days | Time to 1000 mm^3 (days) Mean ([3]; 10 mg/kg Compound 7 qd x4): 34.0 days | Time to 1000 mm^3 (days) Median ([3]; 10 mg/kg Compound 7 qd x4): 33.4 days | Time to 1000 mm^3 (days) Median ([3]; 20 mg/kg Compound 7 qd x4): 36.4 days | increase of therapeutic window ([3]; MTA twice a day 8 days, Compound 7 daily 4 days, nu/nu tumor-bearing mice, folate-deficient diet): 16 fold | reduction in toxicity (weight loss) [4]: 16 fold | Increase in Compound 7 maximum tolerated dose (-fold dose) ([5]; female, BALB/c/nu/nu): 4 -fold dose | Increase in Compound 7 maximum tolerated dose (-fold dose) [5]: None | binds less tightly than lometrexol to mFBP [6]: about 1400 fold | Ki (GARFT): 0.5 nM
